Assay results published in US12568972B2, “Pyridazinol compounds and derivatives, preparation methods, herbicidal compositions and applications thereof” (Qingdao Kingagroot Chemical Compound Co., Ltd., priority 2018, dated 2026).

How the values were obtained:
Assay in all cases: Post-emergence test, weed control effect
Type in all cases: in vivo
Conditions in all cases: after 3 weeks
[1] = tested on: Veronica polita
Text: (§1) The activity level standard of harmful plant destruction (i.e. growth inhibition rate) is as follows: • Level 10: completely dead; • Level 9: above 90% growth inhibition rate; • Level 8: above 80% growth inhibition rate; • Level 7: above 70% growth inhibition rate; • Level 6: above 60% growth inhibition rate; • Level 5: above 50% growth inhibition rate; • Level 4: above 40% growth inhibition rate; • Level 3: above 30% growth inhibition rate; • Level 2: above 20% growth inhibition rate; • Level 1: below 20% growth inhibition rate; • Level 0: no effect.
(§2) The above described growth inhibition rates are fresh weight inhibition rates.
(§3) Experiment of post-emergence test: monocotyledonous and dicotyledonous weed seeds as well as main crop seeds (i.e., wheat, corn, rice, soybean, cotton, oilseed rape, millet and sorghum) were put into a plastic pot loaded with soil, then covered with 0.5-2 cm of soil, and the seeds were allowed to grow in good greenhouse environment. The test plants were treated at 2-3 leaf stage 2-3 weeks after sowing. The test compounds of the invention were dissolved in acetone respectively, then added with Tween-80 and diluted by a certain amount of water to give solutions with certain concentrations, and added with 80% vegetable oil methyl ester synergist at 1500 g/ha. The solution was sprayed to the plants with a sprayer. The plants were cultured for 3 weeks in the greenhouse.

[2] = tested on: Chenopodiaceae
Text: as §1, §2, §3

[3] = tested on: Rorippa indica
Text: as §1, §2, §3

[4] = tested on: Amaranthus retroflexus
Text: as §1, §2, §3

CC(Cl)C(=O)Oc1cc(C(F)(F)F)nnc1-c1ccc(C(F)(F)F)cc1 (stereo not shown) [Compound 1-22]
10: weed control effect, Veronica polita (activity level) ([1]; Dose 3000 g/ha) | weed control effect, Chenopodiaceae (activity level) ([2]; Dose 3000 g/ha) | weed control effect, Rorippa indica (activity level) ([3]; Dose 3000 g/ha) | weed control effect, Amaranthus retroflexus (activity level) ([4]; Dose 3000 g/ha)

Oc1cc(C(F)(F)F)nnc1-c1ccc2ccccc2c1 [Compound 370]
10: weed control effect (activity level), Veronica polita ([1]; dose 2000 g/ha) | weed control effect (activity level), Chenopodiaceae ([2]; dose 2000 g/ha) | weed control effect (activity level), Rorippa indica ([3]; dose 2000 g/ha) | weed control effect (activity level), Amaranthus retroflexus ([4]; dose 2000 g/ha)

Oc1cc(C(F)(F)F)nnc1-c1cc2ccccc2s1 [Compound 594]
10: weed control effect (activity level), Veronica polita ([1]; Dose 3000 g/ha) | weed control effect (activity level), Chenopodiaceae ([2]; Dose 3000 g/ha) | weed control effect (activity level), Rorippa indica ([3]; Dose 3000 g/ha) | weed control effect (activity level), Amaranthus retroflexus ([4]; Dose 3000 g/ha)

CN(C)c1cnn(C)c1-c1nnc(C(F)(F)F)cc1O [Compound 816]
10: weed control effect (activity level), Veronica polita ([1]; Dose 3000 g/ha) | weed control effect (activity level), Chenopodiaceae ([2]; Dose 3000 g/ha) | weed control effect (activity level), Rorippa indica ([3]; Dose 3000 g/ha) | weed control effect (activity level), Amaranthus retroflexus ([4]; Dose 3000 g/ha)

CCC(=O)Oc1cc(C(F)(F)F)nnc1-c1ccc(F)cc1 [Compound 1-4]
10: weed control effect, Veronica polita (activity level) ([1]; Dose 3000 g/ha) | weed control effect, Chenopodiaceae (activity level) ([2]; Dose 3000 g/ha) | weed control effect, Rorippa indica (activity level) ([3]; Dose 3000 g/ha) | weed control effect, Amaranthus retroflexus (activity level) ([4]; Dose 3000 g/ha)

Oc1cc(C(F)(F)F)nnc1-c1cc(F)cc(Cl)c1 [Compound 46]
10: weed control effect (activity level), Veronica polita ([1]; dose 1000 g/ha) | weed control effect (activity level), Chenopodiaceae ([2]; dose 1000 g/ha) | weed control effect (activity level), Rorippa indica ([3]; dose 1000 g/ha) | weed control effect (activity level), Amaranthus retroflexus ([4]; dose 1000 g/ha)

O=Cc1ccc(-c2nnc(C(F)(F)F)cc2O)c(F)c1 [Compound 64]
10: weed control effect (activity level), Veronica polita ([1]; dose 1000 g/ha) | weed control effect (activity level), Chenopodiaceae ([2]; dose 1000 g/ha) | weed control effect (activity level), Rorippa indica ([3]; dose 1000 g/ha) | weed control effect (activity level), Amaranthus retroflexus ([4]; dose 1000 g/ha)

COc1ccc(-c2nnc(C(F)(F)F)cc2O)cc1[N+](=O)[O-] [Compound 768]
10: weed control effect (activity level), Veronica polita ([1]; Dose 3000 g/ha) | weed control effect (activity level), Chenopodiaceae ([2]; Dose 3000 g/ha) | weed control effect (activity level), Rorippa indica ([3]; Dose 3000 g/ha) | weed control effect (activity level), Amaranthus retroflexus ([4]; Dose 3000 g/ha)

CCN(CC)C(=S)Oc1cc(C(F)(F)F)nnc1-c1ccc(F)cc1 [Compound 1-162]
10: weed control effect, Veronica polita (activity level) ([1]; Dose 3000 g/ha) | weed control effect, Chenopodiaceae (activity level) ([2]; Dose 3000 g/ha) | weed control effect, Rorippa indica (activity level) ([3]; Dose 3000 g/ha) | weed control effect, Amaranthus retroflexus (activity level) ([4]; Dose 3000 g/ha)

O=C(Oc1cc(C(F)(F)F)nnc1-c1ccc(Cl)cc1)c1ccccc1Cl [Compound 1-83]
10: weed control effect, Veronica polita (activity level) ([1]; Dose 3000 g/ha) | weed control effect, Chenopodiaceae (activity level) ([2]; Dose 3000 g/ha) | weed control effect, Rorippa indica (activity level) ([3]; Dose 3000 g/ha) | weed control effect, Amaranthus retroflexus (activity level) ([4]; Dose 3000 g/ha)

Oc1cc(C(F)(F)F)nnc1-c1cnc(F)cc1F [Compound 989]
10: weed control effect (activity level), Veronica polita ([1]; Dose 3000 g/ha) | weed control effect (activity level), Chenopodiaceae ([2]; Dose 3000 g/ha) | weed control effect (activity level), Rorippa indica ([3]; Dose 3000 g/ha) | weed control effect (activity level), Amaranthus retroflexus ([4]; Dose 3000 g/ha)

Cn1nc(OCc2ccccc2)cc1-c1nnc(C(F)(F)F)cc1O [Compound 784]
10: weed control effect (activity level), Veronica polita ([1]; Dose 3000 g/ha) | weed control effect (activity level), Chenopodiaceae ([2]; Dose 3000 g/ha) | weed control effect (activity level), Rorippa indica ([3]; Dose 3000 g/ha) | weed control effect (activity level), Amaranthus retroflexus ([4]; Dose 3000 g/ha)

Oc1cc(C(F)(F)F)nnc1-c1ccc(Cl)cc1C(F)(F)F [Compound 763]
10: weed control effect (activity level), Veronica polita ([1]; Dose 3000 g/ha) | weed control effect (activity level), Chenopodiaceae ([2]; Dose 3000 g/ha) | weed control effect (activity level), Rorippa indica ([3]; Dose 3000 g/ha) | weed control effect (activity level), Amaranthus retroflexus ([4]; Dose 3000 g/ha)

Oc1cc(C(F)(F)F)nnc1-c1c(F)cccc1F [Compound 36]
10: weed control effect (activity level), Veronica polita ([1]; dose 1000 g/ha) | weed control effect (activity level), Chenopodiaceae ([2]; dose 1000 g/ha) | weed control effect (activity level), Rorippa indica ([3]; dose 1000 g/ha) | weed control effect (activity level), Amaranthus retroflexus ([4]; dose 1000 g/ha)

CC(C)CC(=O)Oc1cc(C(F)(F)F)nnc1-c1cccc(C(F)(F)F)c1 [Compound 1-8]
10: weed control effect, Veronica polita (activity level) ([1]; Dose 3000 g/ha) | weed control effect, Chenopodiaceae (activity level) ([2]; Dose 3000 g/ha) | weed control effect, Rorippa indica (activity level) ([3]; Dose 3000 g/ha) | weed control effect, Amaranthus retroflexus (activity level) ([4]; Dose 3000 g/ha)

Cc1n[nH]c(C)c1-c1nnc(C(F)(F)F)cc1O [Compound 543]
10: weed control effect (activity level), Veronica polita ([1]; Dose 3000 g/ha) | weed control effect (activity level), Chenopodiaceae ([2]; Dose 3000 g/ha) | weed control effect (activity level), Rorippa indica ([3]; Dose 3000 g/ha) | weed control effect (activity level), Amaranthus retroflexus ([4]; Dose 3000 g/ha)

CCc1cc(-c2nnc(C(F)(F)F)cc2O)c(F)cc1[N+](=O)[O-] [Compound 179]
10: weed control effect (activity level), Veronica polita ([1]; dose 2000 g/ha) | weed control effect (activity level), Chenopodiaceae ([2]; dose 2000 g/ha) | weed control effect (activity level), Rorippa indica ([3]; dose 2000 g/ha) | weed control effect (activity level), Amaranthus retroflexus ([4]; dose 2000 g/ha)

Cc1ccc(Cl)c(-c2nnc(C(F)(F)F)cc2O)c1F [Compound 82]
10: weed control effect (activity level), Veronica polita ([1]; dose 1000 g/ha) | weed control effect (activity level), Chenopodiaceae ([2]; dose 1000 g/ha) | weed control effect (activity level), Rorippa indica ([3]; dose 1000 g/ha) | weed control effect (activity level), Amaranthus retroflexus ([4]; dose 1000 g/ha)

Oc1cc(C(F)(F)F)nnc1-c1ccnn1CC(F)(F)F [Compound 831]
10: weed control effect (activity level), Veronica polita ([1]; Dose 3000 g/ha) | weed control effect (activity level), Chenopodiaceae ([2]; Dose 3000 g/ha) | weed control effect (activity level), Rorippa indica ([3]; Dose 3000 g/ha) | weed control effect (activity level), Amaranthus retroflexus ([4]; Dose 3000 g/ha)

O=Cc1ccc(F)cc1-c1nnc(C(F)(F)F)cc1O [Compound 67]
10: weed control effect (activity level), Veronica polita ([1]; dose 1000 g/ha) | weed control effect (activity level), Chenopodiaceae ([2]; dose 1000 g/ha) | weed control effect (activity level), Rorippa indica ([3]; dose 1000 g/ha) | weed control effect (activity level), Amaranthus retroflexus ([4]; dose 1000 g/ha)

O=C(Oc1cc(C(F)(F)F)nnc1-c1ccccc1)SC1CCCCC1 [Compound 1-58]
10: weed control effect, Veronica polita (activity level) ([1]; Dose 3000 g/ha) | weed control effect, Chenopodiaceae (activity level) ([2]; Dose 3000 g/ha) | weed control effect, Rorippa indica (activity level) ([3]; Dose 3000 g/ha) | weed control effect, Amaranthus retroflexus (activity level) ([4]; Dose 3000 g/ha)

CC(C)CC(CC(C)C)=NOc1cc(C(F)(F)F)nnc1-c1ccc(Cl)cc1 [Compound 1-180]
10: weed control effect, Veronica polita (activity level) ([1]; Dose 3000 g/ha) | weed control effect, Chenopodiaceae (activity level) ([2]; Dose 3000 g/ha) | weed control effect, Rorippa indica (activity level) ([3]; Dose 3000 g/ha) | weed control effect, Amaranthus retroflexus (activity level) ([4]; Dose 3000 g/ha)

CCCOc1ccc(-c2nnc(C(F)(F)F)cc2O)cc1 [Compound 83]
10: weed control effect (activity level), Veronica polita ([1]; dose 1000 g/ha) | weed control effect (activity level), Chenopodiaceae ([2]; dose 1000 g/ha) | weed control effect (activity level), Rorippa indica ([3]; dose 1000 g/ha) | weed control effect (activity level), Amaranthus retroflexus ([4]; dose 1000 g/ha)

CC(=O)Oc1cc(C(F)(F)F)nnc1-c1cccc(F)c1 [Compound 1-1]
10: weed control effect, Veronica polita (activity level) ([1]; Dose 3000 g/ha) | weed control effect, Chenopodiaceae (activity level) ([2]; Dose 3000 g/ha) | weed control effect, Rorippa indica (activity level) ([3]; Dose 3000 g/ha) | weed control effect, Amaranthus retroflexus (activity level) ([4]; Dose 3000 g/ha)

Cc1cc(-c2nnc(C(F)(F)F)cc2O)nn1C [Compound 540]
10: weed control effect (activity level), Veronica polita ([1]; Dose 3000 g/ha) | weed control effect (activity level), Chenopodiaceae ([2]; Dose 3000 g/ha) | weed control effect (activity level), Rorippa indica ([3]; Dose 3000 g/ha) | weed control effect (activity level), Amaranthus retroflexus ([4]; Dose 3000 g/ha)

Cn1ncc(OCc2ccccc2)c1-c1nnc(C(F)(F)F)cc1O [Compound 813]
10: weed control effect (activity level), Veronica polita ([1]; Dose 3000 g/ha) | weed control effect (activity level), Chenopodiaceae ([2]; Dose 3000 g/ha) | weed control effect (activity level), Rorippa indica ([3]; Dose 3000 g/ha) | weed control effect (activity level), Amaranthus retroflexus ([4]; Dose 3000 g/ha)

Cn1ncc(Br)c1-c1nnc(C(F)(F)F)cc1O [Compound 806]
10: weed control effect (activity level), Veronica polita ([1]; Dose 3000 g/ha) | weed control effect (activity level), Chenopodiaceae ([2]; Dose 3000 g/ha) | weed control effect (activity level), Rorippa indica ([3]; Dose 3000 g/ha) | weed control effect (activity level), Amaranthus retroflexus ([4]; Dose 3000 g/ha)

Cc1cc(C)c(S(=O)(=O)Oc2cc(C(F)(F)F)nnc2-c2ccccc2)c(C)c1 [Compound 1-131]
10: weed control effect, Veronica polita (activity level) ([1]; Dose 3000 g/ha) | weed control effect, Chenopodiaceae (activity level) ([2]; Dose 3000 g/ha) | weed control effect, Rorippa indica (activity level) ([3]; Dose 3000 g/ha) | weed control effect, Amaranthus retroflexus (activity level) ([4]; Dose 3000 g/ha)
